Reference: article PMC10584170, “Machine learning-based phenotypic imaging to characterise the targetable biology of Plasmodium falciparum male gametocytes for the development of transmission-blocking antimalarials” (PLOS Pathogens, 2023)
Read-outs that look alike come from different tables or passages of the source.

Columns and labels:
[1] = test system: P. falciparum male gametocytes; assay: P. falciparum Dual Gamete Formation Assay (PfDGFA), male readout (exflagellation); assay type: cell-based, Plasmodium falciparum NF54; conditions: for Average inhibition male (%) / % inhibition male (individual replicates) R1 / % inhibition male (individual replicates) R3 / % inhibition male (individual replicates) R4 / inhibition at 2 µM: 24h preincubation with gametocytes; for Selectivity Ratio M: HepG2 Tox50 versus male IC50; for IC50: PfDGFA, 24 h incubation with gametocytes before induction, exflagellation readout, read-out: Male IC50; for HitlevelM: number of replicates with >50% inhibition in the male readout
Summary of the method: (§1)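 Male and female gamete formation were quantified by microscopy image analysis following 24 h incubation of mature NF54 gametocytes with compound and activation at 28°C with xanthurenic acid.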

HepG2 cells = assay: HepG2 cytotoxicity counter-screen; conditions: cytotoxic activity against HepG2 cells
[2] = test system: P. falciparum female gametocytes; assay: P. falciparum Dual Gamete Formation Assay (PfDGFA), female readout (Pfs25-positive female gametes); assay type: cell-based, Plasmodium falciparum NF54; conditions: for Average inhibition female (%) / % inhibition female (individual replicates) R1 / % inhibition female (individual replicates) R3 / % inhibition female (individual replicates) R4 / inhibition at 2 µM: 24h preincubation with gametocytes; for Selectivity ratio F: HepG2 Tox50 versus female IC50; for IC50: PfDGFA, 24 h incubation with gametocytes before induction, female gamete readout, read-out: Female IC50; for HitlevelF: number of replicates with >50% inhibition in the female readout
Summary of the method: as §1

[3] = PfDGFA at 2µM, average of replicates
[4] = Plasmodium falciparum, 2µM, average of replicates, read-out: Average inhibition male (%)
[5] = Plasmodium falciparum, 2µM, replicate R1, read-out: % inhibition male (individual replicates) R1
[6] = Plasmodium falciparum, 2µM, replicate R2, read-out: % inhibition male (individual replicates) R2
[7] = Plasmodium falciparum, 2µM, replicate R4, read-out: % inhibition male (individual replicates) R4
[8] = Plasmodium falciparum, 2µM, average of replicates, read-out: Average inhibition female (%)
[9] = Plasmodium falciparum, 2µM, replicate R1, read-out: % inhibition female (individual replicates) R1
[10] = Plasmodium falciparum, 2µM, replicate R2, read-out: % inhibition female (individual replicates) R2
[11] = Plasmodium falciparum, 2µM, replicate R3, read-out: % inhibition female (individual replicates) R3
[12] = Plasmodium falciparum, 2µM, replicate R4, read-out: % inhibition female (individual replicates) R4

SMILES: Nc1nc(N)c2c(ccc3[nH]c(-c4ccccc4Cl)nc32)n1 [TCMDC-137840]
- Average inhibition male (%) ([1]; 2µM, average of replicates): 99.1%
- % inhibition male (individual replicates) R1 ([1]; 2µM, replicate R1): 101.1%
- % inhibition male (individual replicates) R3 ([1]; 2µM, replicate R3): 94.6%
- % inhibition male (individual replicates) R4 ([1]; 2µM, replicate R4): 101.3%
- Selectivity Ratio M [1]: 2.01
- IC50 [1]: 1.02 µM
- Tox50 (HepG2 cells): 2.04 µM
- Average inhibition female (%) ([2]; 2µM, average of replicates): 54.2%
- % inhibition female (individual replicates) R1 ([2]; 2µM, replicate R1): 66.8%
- % inhibition female (individual replicates) R3 ([2]; 2µM, replicate R3): 50.3%
- % inhibition female (individual replicates) R4 ([2]; 2µM, replicate R4): 52.5%
- Selectivity ratio F [2]: 0.88
- IC50 [2]: 2.32 µM

SMILES: COc1cc2ccccc2c(OC)c1CNCCCCCCNCc1c(OC)cc2ccccc2c1OC.CS(=O)(=O)O [TCMDC-137843]
- Selectivity Ratio M [1]: 2.16
- Average inhibition male (%) [1, 3]: 82.6%
- % inhibition male (individual replicates) R1 ([1]; PfDGFA at 2µM, replicate R1): 82.1%
- % inhibition male (individual replicates) R3 ([1]; PfDGFA at 2µM, replicate R3): 58.2%
- % inhibition male (individual replicates) R4 ([1]; PfDGFA at 2µM, replicate R4): 98.9%
- IC50 [1]: 1.66 µM
- HitlevelM ([1]; 2µM): 4
- Tox50 (HepG2 cells): 3.59 µM
- Selectivity ratio F [2]: 0.88
- Average inhibition female (%) [2, 3]: 38.4%
- % inhibition female (individual replicates) R1 ([2]; PfDGFA at 2µM, replicate R1): 31.9%
- % inhibition female (individual replicates) R3 ([2]; PfDGFA at 2µM, replicate R3): 18.8%
- % inhibition female (individual replicates) R4 ([2]; PfDGFA at 2µM, replicate R4): 37.8%
- IC50 [2]: 4.09 µM
- HitlevelF ([2]; 2µM): 1

SMILES: CCCCOc1c(CCNCCCCNCCc2cc(OC)c3ccccc3c2OCCCC)cc(OC)c2ccccc12.CS(=O)(=O)O [TCMDC-137848]
- Selectivity Ratio M [1]: 2.01
- Average inhibition male (%) [1, 3]: 82.6%
- % inhibition male (individual replicates) R1 ([1]; PfDGFA at 2µM, replicate R1): 89.8%
- % inhibition male (individual replicates) R3 ([1]; PfDGFA at 2µM, replicate R3): 50.4%
- % inhibition male (individual replicates) R4 ([1]; PfDGFA at 2µM, replicate R4): 92.9%
- IC50 [1]: 1.57 µM
- HitlevelM ([1]; 2µM): 4
- Tox50 (HepG2 cells): 3.16 µM
- Selectivity ratio F [2]: 2.45
- Average inhibition female (%) [2, 3]: 42.4%
- % inhibition female (individual replicates) R1 ([2]; PfDGFA at 2µM, replicate R1): 32.5%
- % inhibition female (individual replicates) R3 ([2]; PfDGFA at 2µM, replicate R3): 23.0%
- % inhibition female (individual replicates) R4 ([2]; PfDGFA at 2µM, replicate R4): 45.3%
- IC50 [2]: 1.29 µM
- HitlevelF ([2]; 2µM): 1

SMILES: CS(=O)(=O)O.FC(F)(F)COc1ccc(CNCCCCCCNCc2ccc(OCC(F)(F)F)c3ccccc23)c2ccccc12 [TCMDC-137853]
- Average inhibition male (%) ([1]; 2µM, average of replicates): 98.2%
- % inhibition male (individual replicates) R1 ([1]; 2µM, replicate R1): 97.9%
- % inhibition male (individual replicates) R3 ([1]; 2µM, replicate R3): 96.8%
- % inhibition male (individual replicates) R4 ([1]; 2µM, replicate R4): 101.6%
- Selectivity Ratio M [1]: 4.06
- IC50 [1]: 0.31 µM
- Tox50 (HepG2 cells): 1.26 µM
- Average inhibition female (%) ([2]; 2µM, average of replicates): 50.4%
- % inhibition female (individual replicates) R1 ([2]; 2µM, replicate R1): 38.4%
- % inhibition female (individual replicates) R3 ([2]; 2µM, replicate R3): 35.3%
- % inhibition female (individual replicates) R4 ([2]; 2µM, replicate R4): 42.3%
- Selectivity ratio F [2]: 2.44
- IC50 [2]: 0.52 µM

SMILES: COc1c(CCNCCCCNCCc2cc(Cl)c3ccccc3c2OC)cc(Cl)c2ccccc12.CS(=O)(=O)O [TCMDC-137869]
- Average inhibition male (%) ([1]; 2µM, average of replicates): 96.4%
- % inhibition male (individual replicates) R1 ([1]; 2µM, replicate R1): 99.7%
- % inhibition male (individual replicates) R3 ([1]; 2µM, replicate R3): 90.8%
- % inhibition male (individual replicates) R4 ([1]; 2µM, replicate R4): 101.9%
- Selectivity Ratio M [1]: 3.25
- IC50 [1]: 0.92 µM
- Tox50 (HepG2 cells): 2.99 µM
- Average inhibition female (%) ([2]; 2µM, average of replicates): 93.4%
- % inhibition female (individual replicates) R1 ([2]; 2µM, replicate R1): 93.5%
- % inhibition female (individual replicates) R3 ([2]; 2µM, replicate R3): 100.2%
- % inhibition female (individual replicates) R4 ([2]; 2µM, replicate R4): 88.2%
- Selectivity ratio F [2]: 2.39
- IC50 [2]: 1.25 µM

SMILES: Oc1cccc(CNCCCN(Cc2ccccc2)c2ccccc2)c1 [TCMDC-137875]
- Selectivity Ratio M [1]: 13
- inhibition at 2 µM [1, 4]: 97.7%
- inhibition at 2 µM [1, 5]: 96.8%
- inhibition at 2 µM [1, 6]: 93.7%
- inhibition at 2 µM [1, 7]: 103%
- IC50 ([1]; Plasmodium falciparum): 1.06 µM
- Tox50 (HepG2 cells): 13.84 µM
- Selectivity ratio F [2]: 1.79
- inhibition at 2 µM [2, 8]: 33.5%
- inhibition at 2 µM [2, 9]: 43.5%
- inhibition at 2 µM [2, 10]: 32%
- inhibition at 2 µM [2, 11]: 28.3%
- inhibition at 2 µM [2, 12]: 30.2%
- IC50 ([2]; Plasmodium falciparum): 7.74 µM

SMILES: CC(=NNC(=S)NCCc1ccccn1)c1ccccn1 [TCMDC-137895]
- Average inhibition male (%) ([1]; 2µM, average of replicates): 93.4%
- % inhibition male (individual replicates) R1 ([1]; 2µM, replicate R1): 86.5%
- % inhibition male (individual replicates) R3 ([1]; 2µM, replicate R3): 96.2%
- % inhibition male (individual replicates) R4 ([1]; 2µM, replicate R4): 94.6%
- Selectivity Ratio M [1]: 2.92
- IC50 [1]: 0.39 µM
- Tox50 (HepG2 cells): 1.15 µM
- Average inhibition female (%) ([2]; 2µM, average of replicates): 79.8%
- % inhibition female (individual replicates) R1 ([2]; 2µM, replicate R1): 58.7%
- % inhibition female (individual replicates) R3 ([2]; 2µM, replicate R3): 98.6%
- % inhibition female (individual replicates) R4 ([2]; 2µM, replicate R4): 74.6%
- Selectivity ratio F [2]: 2.26
- IC50 [2]: 0.51 µM

SMILES: CN(CCCNCc1cccc2ccccc12)CCCNCc1cccc2ccccc12.Cl [TCMDC-137905]
- Selectivity Ratio M [1]: 6.46
- Average inhibition male (%) [1, 3]: 87.5%
- % inhibition male (individual replicates) R1 ([1]; PfDGFA at 2µM, replicate R1): 87.4%
- % inhibition male (individual replicates) R3 ([1]; PfDGFA at 2µM, replicate R3): 74.8%
- % inhibition male (individual replicates) R4 ([1]; PfDGFA at 2µM, replicate R4): 93.6%
- IC50 [1]: 0.92 µM
- HitlevelM ([1]; 2µM): 4
- Tox50 (HepG2 cells): 5.94 µM
- Selectivity ratio F [2]: 4.08
- Average inhibition female (%) [2, 3]: 42.5%
- % inhibition female (individual replicates) R1 ([2]; PfDGFA at 2µM, replicate R1): 35.1%
- % inhibition female (individual replicates) R3 ([2]; PfDGFA at 2µM, replicate R3): 30.8%
- % inhibition female (individual replicates) R4 ([2]; PfDGFA at 2µM, replicate R4): 35.6%
- IC50 [2]: 1.46 µM
- HitlevelF ([2]; 2µM): 1

SMILES: COCCCNC(=S)NN=C(C)c1ccccn1 [TCMDC-137907]
- Selectivity Ratio M [1]: 1.14
- inhibition at 2 µM [1, 4]: 100%
- inhibition at 2 µM [1, 5]: 99.7%
- inhibition at 2 µM [1, 6]: 100%
- inhibition at 2 µM ([1]; Plasmodium falciparum, 2µM, replicate R3, read-out: % inhibition male (individual replicates) R3): 97.8%
- inhibition at 2 µM [1, 7]: 103%
- IC50 ([1]; Plasmodium falciparum): 0.42 µM
- Tox50 (HepG2 cells): 0.48 µM
- Selectivity ratio F [2]: 1.2
- inhibition at 2 µM [2, 8]: 95.6%
- inhibition at 2 µM [2, 9]: 95.7%
- inhibition at 2 µM [2, 10]: 91.5%
- inhibition at 2 µM [2, 11]: 100%
- inhibition at 2 µM [2, 12]: 94.6%
- IC50 ([2]; Plasmodium falciparum): 0.4 µM

SMILES: CN(CCCNCc1ccc2ccccc2c1)CCCNCc1ccc2ccccc2c1.Cl [TCMDC-137908]
- Average inhibition male (%) ([1]; 2µM, average of replicates): 96.1%
- % inhibition male (individual replicates) R1 ([1]; 2µM, replicate R1): 95.1%
- % inhibition male (individual replicates) R3 ([1]; 2µM, replicate R3): 92.7%
- % inhibition male (individual replicates) R4 ([1]; 2µM, replicate R4): 98.2%
- Selectivity Ratio M [1]: 8.05
- IC50 [1]: 0.51 µM
- Tox50 (HepG2 cells): 4.12 µM
- Average inhibition female (%) ([2]; 2µM, average of replicates): 40.6%
- % inhibition female (individual replicates) R1 ([2]; 2µM, replicate R1): 36.9%
- % inhibition female (individual replicates) R3 ([2]; 2µM, replicate R3): 42.1%
- % inhibition female (individual replicates) R4 ([2]; 2µM, replicate R4): 30.7%
- Selectivity ratio F [2]: 3.92
- IC50 [2]: 1.05 µM
